Several values for one entry are separate records, joined by “and”; a condition that tells them apart may be missing. Equal entries are not always repeated. Where two headings read alike, the source gives them in different places.
Experiments:
Parameters in all cases: expressed in transfected cells
[1] = target: α1β3γ2 GABAA/BzR (Homo sapiens, UniProt P14867+P18507); assay: Competition binding to HEK cell membranes, α1β3γ2
[2] = target: α2β3γ2 GABAA/BzR (Homo sapiens, UniProt P18507+P47869); assay: Competition binding to HEK cell membranes, α2β3γ2
[3] = target: α3β3γ2 GABAA/BzR (Homo sapiens, UniProt P18507+P34903); assay: Competition binding to HEK cell membranes, α3β3γ2
[4] = target: α5β3γ2 GABAA/BzR (Homo sapiens, UniProt P18507+P31644); assay: Competition binding to HEK cell membranes, α5β3γ2
[5] = target: α6β3γ2 GABAA/BzR (Homo sapiens, UniProt P18507+Q16445); assay: Competition binding to HEK cell membranes, α6β3γ2

| Structure (SMILES) | Ki ([1]; read-out: Ki α1) | Ki ([2]; read-out: Ki α2) | Ki ([3]; read-out: Ki α3) | Ki ([4]; read-out: Ki α5) | Ki ([5]; read-out: Ki α6) | also measured |
| --- | --- | --- | --- | --- | --- | --- |
| CN1Cc2c(C(=O)OC3CC3)ncn2-c2ccc(Cl)cc2C1=O [CD-214] | 16.4 nM | 48.2 nM | 42.5 nM | 9.8 nM | 168 nM |  |
| CC[C@H](C)OC(=O)c1cc2c(cn1)[nH]c1ccccc12 [CM-A50 (S)] | 17 nM | 59 nM | 88 nM | 144 nM | 1000 nM |  |
| O=C1C2C=Nc3ccccc3C2=NN1c1ccccc1 (stereo not shown) [QH-II-090 (CGS-8216), reference compound] |  |  |  |  |  | Ki ([1]; Ki α1): 0.13 nM and 0.05 nM; Ki ([2]; Ki α2): 0.08 nM; Ki ([3]; Ki α3): 0.12 nM; Ki ([4]; Ki α5): 0.25 nM; Ki ([5]; Ki α6): 46 nM and 17 nM |
| Cc1nnc2n1-c1ccc(Br)cc1C(c1ccccc1F)=NC2 [JYI-64 (C17H12N4FBr)] | 0.305 nM | 1.11 nM | 0.62 nM | 0.87 nM | 5000 nM |  |
| COCc1c(C(=O)OC(C)C)ncc2[nH]c3ccc(OCc4ccccc4)cc3c12 [ABECARNIL, reference compound] |  |  |  |  |  | Ki ([1]; Ki α1): 12.4 nM; Ki ([2]; Ki α2): 15.3 nM; Ki ([3]; Ki α3): 7.5 nM; Ki ([4]; Ki α5): 6 nM; Ki ([5]; Ki α6): 1000 nM |
| c1ccc2c(c1)[nH]c1c2ncc2[nH]c3ccccc3c21 [MLT-I-70] | 1.1 nM | 1.2 nM | 1.1 nM | 40.3 nM | 1000 nM |  |
| C#Cc1ccc2c(c1)C(c1ccccc1)=NCc1c(C(=O)OCC(F)(F)F)ncn1-2 [DM-II-20] | 54.3 nM | 27.1 nM | 35.7 nM | 15.3 nM | 5000 nM |  |
| c1ccc2c(c1)[nH]c1cnc3c4cccnc4[nH]c3c12 [LJD-III-15E] | 1.93 nM | 14 nM | 19 nM | 70.8 nM | 1000 nM |  |
| C#Cc1ccc2c(c1)C(=O)N1CCC1c1c(-c3ocnc3C(=O)OCC)ncn1-2 (stereo not shown) [RY-069] |  |  |  |  |  | Ki ([1]; Ki α1): 692 nM; Ki ([2]; Ki α2): 622 nM; Ki ([3]; Ki α3): 506 nM; Ki ([4]; Ki α5): 19 nM; Ki ([5]; Ki α6): 1000 nM |
| Cc1nnc2n1-c1ccc(Br)cc1C(c1ccccc1Cl)=NC2 [DM-II-90] | 0.505 nM | 1 nM | 0.63 nM | 0.37 nM | 5000 nM |  |
| CC[C@@H](C)OC(=O)c1cc2c(cn1)[nH]c1ccccc12 [CM-A49 (R)] | 7.7 nM | 32.5 nM | 43 nM | 69 nM | 1000 nM |  |
| CC(C)(C)OC(=O)c1ncn2c1[C@@H]1CCCN1C(=O)c1c(Br)cccc1-2 [BRETAZENIL, reference compound] |  |  |  |  |  | Ki ([1]; Ki α1): 0.35 nM; Ki ([2]; Ki α2): 0.64 nM; Ki ([3]; Ki α3): 0.2 nM; Ki ([4]; Ki α5): 0.5 nM; Ki ([5]; Ki α6): 12.7 nM |
| O=C(OCC(F)(F)F)c1ncn2c1CN=C(c1ccccc1F)c1cc(-c3ccco3)ccc1-2 [JYI-54] | 2.89 nM | 172 nM | 6.7 nM | 57 nM | 1890 nM |  |
| O=c1c2c[nH]c3ccccc3c-2nn1-c1ccccc1 [QH-II-090] | 0.05 nM | 0.08 nM | 0.12 nM | 0.25 nM | 17 nM |  |
| CCCCc1cc2c(cn1)[nH]c1ccc(F)cc12 [CM-A58] | 16 nM | 120 nM | 184 nM | 1000 nM | 1010 nM |  |
| COc1ccc(-n2nc3c4cc(Cl)ccc4[nH]cc-3c2=O)cc1 [PZII-028] | 0.2 nM |  | 0.2 nM | 0.32 nM | 1.9 nM |  |
| Oc1ccc2c(c1)[nH]c1c2ncc2[nH]c3ccccc3c21 [MLT-II-34] | 7.04 nM | 15.9 nM | 22.3 nM | 158 nM | 1000 nM |  |

| Structure (SMILES) | Ki ([1]; read-out: Ki α1) | Ki ([2]; read-out: Ki α2) | Ki ([3]; read-out: Ki α3) | Ki ([4]; read-out: Ki α5) | Ki ([5]; read-out: Ki α6) | also measured |
| --- | --- | --- | --- | --- | --- | --- |
| CC(C)c1nc(-c2ncn3c2CN(C)C(=O)c2c(Cl)cccc2-3)no1 [FG8205, reference compound] | 0.4 nM | 2.08 nM | 1.16 nM | 1.54 nM | 227 nM |  |
| C#Cc1ccc2c(c1)C(c1cccs1)=NCc1c(C(=O)OCC)ncn1-2 [JC221] | 106 nM | 49.4 nM | 182 nM | 7.75 nM | 362 nM |  |
| O=C(OCC(F)(F)F)c1ncn2c1CN=C(c1ccccc1)c1ccccc1-2 [DM-II-30] | 17.6 nM | 13.4 nM | 28.5 nM | 7.8 nM | 5000 nM |  |
| C#Cc1ccc2c(c1)C(=O)N(C)Cc1c(C(=O)OCCCCCOC(=O)c3ncn4c3CN(C)C(=O)c3cc(C#C)ccc3-4)ncn1-2 [compound 56, 1,5-Bis(8-acetyleno-5,6-dihydro-5-methyl-6-oxo-4H-imidazo[1,5a][1,4]benzodiazepine-3-carboxy) pentyl diester] |  |  |  |  |  | Ki ([1]; Ki α1): 231 nM; Ki ([2]; Ki α2): 661 nM; Ki ([3]; Ki α3): 2670 nM; Ki ([4]; Ki α5): 5.4 nM; Ki ([5]; Ki α6): 54.2 nM |
| CCOC(=O)c1ncoc1-c1ncn2c1C1CCN1C(=O)c1cc(C#C[Si](C)(C)C)ccc1-2 (stereo not shown) [RY-068 (11)] |  |  |  |  |  | Ki ([1]; Figure 5, read-out: Ki α1): > 500 nM; Ki ([2]; Figure 5, read-out: Ki α2): 877 nM; Ki ([3]; Figure 5, read-out: Ki α3): 496 nM; Ki ([4]; Figure 5, read-out: Ki α5): 37 nM; Ki ([5]; Figure 5, read-out: Ki α6): > 1000 nM |
| Cc1nnc2n1-c1ccc(Br)cc1C(c1ccccc1Cl)=NC2 [DM-II-90 (C17H12N4BrCl)] |  | 1 nM | 0.63 nM | 0.37 nM | 5000 nM |  |
| Cc1nnc2n1-c1ccc(Br)cc1C(c1ccccc1F)=NC2 [JYI-64] | 0.305 nM | 1.11 nM | 0.62 nM | 0.87 nM | 5000 nM |  |
| C#Cc1ccc2c(c1)C(=O)N1CCC1c1c(-c3ocnc3C(=O)OCC)ncn1-2 (stereo not shown) [RY-069 (13)] |  |  |  |  |  | Ki ([1]; Figure 5, read-out: Ki α1): 692 nM; Ki ([2]; Figure 5, read-out: Ki α2): 622 nM; Ki ([3]; Figure 5, read-out: Ki α3): 506 nM; Ki ([4]; Figure 5, read-out: Ki α5): 19 nM; Ki ([5]; Figure 5, read-out: Ki α6): > 1000 nM |
| Fc1ccc2c(c1)[nH]c1c2ncc2[nH]c3ccccc3c21 [MLT-II-16] | 5.05 nM | 10.4 nM | 18.4 nM | 260 nM | 10000 nM |  |
| COc1ccc(-n2nc3c4ccc(OC)cc4[nH]cc-3c2=O)cc1 [PZII-029] | 0.34 nM |  | 0.79 nM | 0.52 nM | 10 nM |  |
| CCOC(=O)c1ncc2[nH]c3cc(OC)c(OC)cc3c2c1CC [MSR-I-032] | 6.2 nM | 18.7 nM | 4 nM |  | 74.9 nM |  |
| C#Cc1ccc2c(c1)C(c1ccccc1F)=NCC(=O)N2 [JYI-60] | 3.73 nM | 1.64 nM | 4.3 nM | 1.7 nM | 5000 nM |  |
| Cc1nnc2n1-c1ccc(Cl)cc1C(c1ccccc1)=NC2 [alprazolam, reference compound] |  |  |  |  |  | Ki ([1]; Ki α1): 0.8 nM; Ki ([2]; Ki α2): 0.59 nM; Ki ([3]; Ki α3): 1.43 nM; Ki ([4]; Ki α5): 1.54 nM; Ki ([5]; Ki α6): 10000 nM and 1000 nM |
| CCCC(=O)c1cc2c(cn1)[nH]c1ccccc12 [MSA-IV-35] | 2.1 nM | 16 nM | 21 nM | 995 nM | 3000 nM |  |
| O=C(OCC(Cl)(Cl)Cl)c1ncn2c1CN=C(c1ccccc1)c1cc(Br)ccc1-2 [DM-II-33 (C20H13N3O2BrCl3)] | 88.6 nM | 85 nM | 11.6 nM | 26.2 nM | 5000 nM |  |
| C#Cc1ccc2c(c1)C(=O)N(C)Cc1c(C(=O)OC(C)(C)C)ncn1-2 [RY-024] | 26.9 nM | 26.3 nM | 18.7 nM | 0.4 nM | 5.1 nM |  |
| CCC(C)OC(=O)c1cc2c(cn1)[nH]c1ccccc12 (stereo not shown) [CM-A64] | 18 nM | 60 nM | 116 nM | 216 nM | 1000 nM |  |

Source: PMC4657098, “A Review of the Updated Pharmacophore for the Alpha 5 GABA(A) Benzodiazepine Receptor Model” (International Journal of Medicinal Chemistry, 2015)
